This experiment can be described thus: Blocker Index (BI), expert graders smelling isovaleric acid swatches treated with test material. To be noted: test material 50 ppm on swatch with 20 μL 0.08% isovaleric acid, scale 0-3. The source says:
Blocker materials suitable for use in consumer products of the present invention are chosen for their ability to decrease malodor, while not interfering with perception of a fragrance. Material selection is done by assigning two indices to a test sample material from two reference scales in order to rank odor strengths. The two reference scales are the Fragrance Fidelity Index (FFI) scale and the Blocker Index (BI) scale. The FFI ranks the ability of the test sample material to impart a perceivable odor which could cause interference when combined with another fragrance and the BI ranks the ability of the test sample material to reduce malodor perception. The two methods for assigning the indices to a test sample on the FFI and the BI reference scales are given below.
The first step in the method for assigning a BI to a test sample material on the BI reference scale is to create the BI reference swatches. […] Fabric swatches for this test are white knit polycotton (4 inch×4 inch) swatches from EMC ordered as PC 50/50. The supplier is instructed to strip the swatches first, stripping involves washing twice with a fragrance-free detergent and rinsing three times.
The BI scale contains one clean swatch with no malodor applied. […] These solutions are pipetted to the middle of the swatches. […]

Molecules are shown by their SMILES.

`C=C/C(C)=C\CC=C(C)C` [Material 524]: the BI amounted to 2.8.

For the origin of these results see patent US10792384B2, “Rolled fibrous structures comprising encapsulated malodor reduction compositions” (The Procter & Gamble Company, priority 2017, dated 2020).
